Assay results from ChEMBL document CHEMBL1201862, “PubChem BioAssay data set” (2004).
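1) Cells in 96-well plates. 2) Compound, 48 h, 5 concentrations. 3) Linear interpolation between surrounding doses. 4) Unreached endpoint = highest concentration. GI50 = concentration required for 50% inhibition of growth.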 The source made the active and inactive calls. No stated cut-off is given here; in the data, active = GI50 up to about 1.1 µM and inactive = higher.

Tests used:
Test in all cases: NCI tumour cell line growth inhibition, 48 h
[1] = test system: SF-295
[2] = test system: KM12
[3] = test system: SK-MEL-28
[4] = test system: PC-3
[5] = test system: K562
[6] = test system: A498
[7] = test system: RPMI-8226
[8] = test system: HOP-62
[9] = test system: DU-145
[10] = test system: MCF7
[11] = test system: MDA-MB-231
[12] = test system: IGROV-1
[13] = test system: OVCAR-4
[14] = test system: MOLT-4
[15] = test system: RXF 393
[16] = test system: UACC-257
[17] = test system: HCC 2998
[18] = test system: TK-10
[19] = test system: T47D
[20] = test system: M14
[21] = test system: OVCAR-3
[22] = test system: MDA-N
[23] = test system: SK-OV-3
[24] = test system: Hs-578T
[25] = test system: NCI/ADR-RES
[26] = test system: EKVX
[27] = test system: Malme-3M
[28] = test system: UO-31
[29] = test system: ACHN
[30] = test system: HOP-92
[31] = test system: LOX IMVI
[32] = test system: UACC-62
[33] = test system: OVCAR-5
[34] = test system: SNB-75
[35] = test system: HCT-15
[36] = test system: HCT-116
[37] = test system: U-251
[38] = test system: NCI-H23
[39] = test system: SN12C
[40] = test system: COLO 205
[41] = test system: SW-620
[42] = test system: HT-29
[43] = test system: MDA-MB-435
[44] = test system: NCI-H226
[45] = test system: SR
[46] = test system: OVCAR-8
[47] = test system: SNB-19
[48] = test system: SF-268
[49] = test system: HL-60
[50] = test system: CCRF-CEM
[51] = test system: NCI-H460
[52] = test system: NCI-H522
[53] = test system: 786-0
[54] = test system: CAKI-1
[55] = test system: SF-539
[56] = test system: SK-MEL-5
[57] = test system: SK-MEL-2
[58] = test system: A549

CC[N+]1(C)CCC(O)(c2ccc(Cl)cc2)C(C(=O)c2ccc(Cl)cc2)C1 (stereo not given)
GI50 [1]: > 10 µM (inactive)
GI50 [2]: 16.9 µM (inactive)
GI50 [3]: 16 µM (inactive)
GI50 [4]: 17.5 µM (inactive)
GI50 [5]: 4.09 µM (inactive)
GI50 [6]: 27.9 µM (inactive)
GI50 [7]: 1.73 µM (inactive)
GI50 [8]: 23.8 µM (inactive)
GI50 [9]: 18.7 µM (inactive)
GI50 [10]: 1.1 µM (active)
GI50 [11]: 14.9 µM (inactive)
GI50 [12]: 18.5 µM (inactive)
GI50 [13]: 29.3 µM (inactive)
GI50 [14]: 13.7 µM (inactive)
GI50 [15]: 14.4 µM (inactive)
GI50 [16]: 24.4 µM (inactive)
GI50 [17]: 19.9 µM (inactive)
GI50 [18]: 17.7 µM (inactive)
GI50 [19]: 2.79 µM (inactive)
GI50 [20]: 17.4 µM (inactive)
GI50 [21]: 20.5 µM (inactive)
GI50 [22]: 19.1 µM (inactive)
GI50 [23]: 14.6 µM (inactive)
GI50 [24]: 12.5 µM (inactive)
GI50 [25]: 24.2 µM (inactive)
GI50 [26]: > 10 µM (inactive)
GI50 [27]: 7.31 µM (inactive)
GI50 [28]: 20.1 µM (inactive)
GI50 [29]: 19 µM (inactive)
GI50 [30]: > 10 µM (inactive)
GI50 [31]: 5.58 µM (inactive)
GI50 [32]: 14.7 µM (inactive)
GI50 [33]: 19.1 µM (inactive)
GI50 [34]: > 10 µM (inactive)
GI50 [35]: 22 µM
GI50 [36]: 10.3 µM (inactive)
GI50 [37]: 24.5 µM (inactive)
GI50 [38]: 17.4 µM (inactive)
GI50 [39]: 22.1 µM (inactive)
GI50 [40]: 4.89 µM (inactive)
GI50 [41]: 1.82 µM (inactive)
GI50 [42]: 29.1 µM (inactive)
GI50 [43]: 19.8 µM (inactive)
GI50 [44]: 23.8 µM (inactive)
GI50 [45]: 6.34 µM (inactive)
GI50 [46]: 46.6 µM (inactive)
GI50 [47]: 17.2 µM (inactive)
GI50 [48]: 24.5 µM (inactive)
GI50 [49]: 7.83 µM (inactive)
GI50 [50]: 2.74 µM (inactive)
GI50 [51]: 27.5 µM (inactive)
GI50 [52]: 1.79 µM (inactive)

CCc1cccc(C(C)C)c1NC1=C([n+]2ccc(C)cc2)C(=O)c2ccccc2C1=O.[O-][Cl+3]([O-])([O-])[O-]
GI50 [1]: 1.87 µM (inactive)
GI50 [2]: 2.77 µM (inactive)
GI50 [3]: 7.64 µM (inactive)
GI50 [4]: 1.54 µM (inactive)
GI50 [5]: 1.91 µM (inactive)
GI50 [6]: 2.75 µM (inactive)
GI50 [7]: 0.423 µM (active)
GI50 [8]: 0.804 µM (active)
GI50 [9]: 0.667 µM (active)
GI50 [53]: 0.481 µM (active)
GI50 [10]: 0.27 µM (active)
GI50 [54]: 1.13 µM (inactive)
GI50 [11]: 2.21 µM (inactive)
GI50 [12]: 0.284 µM (active)
GI50 [13]: 1.73 µM (inactive)
GI50 [55]: 0.895 µM (active)
GI50 [14]: 0.3 µM (active)
GI50 [15]: 0.575 µM (active)
GI50 [16]: 0.993 µM (active)
GI50 [17]: 3.21 µM (inactive)
GI50 [18]: 7.87 µM (inactive)
GI50 [19]: 0.13 µM (active)
GI50 [20]: 0.944 µM (active)
GI50 [21]: 0.647 µM (active)
GI50 [22]: 1.65 µM (inactive)
GI50 [23]: 2.64 µM (inactive)
GI50 [24]: 12.8 µM (inactive)
GI50 [25]: 4.92 µM (inactive)
GI50 [56]: 1.14 µM (inactive)
GI50 [26]: 0.817 µM (active)
GI50 [27]: 2.12 µM (inactive)
GI50 [57]: 3.87 µM (inactive)
GI50 [28]: 1.23 µM (inactive)
GI50 [29]: 0.275 µM (active)
GI50 [30]: 0.451 µM (active)
GI50 [31]: 0.673 µM (active)
GI50 [32]: 0.822 µM (active)
GI50 [33]: 5.3 µM (inactive)
GI50 [34]: 1.75 µM (inactive)
GI50 [35]: 3.62 µM
GI50 [36]: 3.21 µM (inactive)
GI50 [37]: 0.887 µM (active)
GI50 [38]: 1.93 µM (inactive)
GI50 [39]: 0.475 µM (active)
GI50 [40]: 1.1 µM (active)
GI50 [41]: 0.861 µM (active)
GI50 [42]: 1.82 µM (inactive)
GI50 [43]: 1.7 µM (inactive)
GI50 [44]: 1.39 µM (inactive)
GI50 [45]: 0.0525 µM (active)
GI50 [46]: 0.962 µM (active)
GI50 [47]: 1.83 µM (inactive)
GI50 [48]: 0.359 µM (active)
GI50 [49]: 1.18 µM (inactive)
GI50 [58]: 2.37 µM (inactive)
GI50 [50]: 0.21 µM (active)
GI50 [51]: 0.564 µM (active)
GI50 [52]: 1.32 µM (inactive)
